Consider 2 compounds from patent publication US11617748B2, “Meclozine derivatives and diclazuril derivatives for use in the prevention and/or the treatment of disorders associated to the inflammation induced by P. acnes” (priority 2016, dated 2023).

In experiment [1] the test system is IL-8 production. Kind of experiment: P. acnes-induced IL-8 production in HaCaT keratinocytes (ELISA). It is filed as cell-based, human. The conditions noted are these: HaCaT cells pre-treated 24 h, no P. acnes stimulation. (In general: In an ELISA, binding on a coated surface is turned into a signal by an enzyme label.)
Experiment [2] deals with P. acnes-induced ear inflammation. Kind of experiment: In vivo model of P. acnes-induced inflammation in mouse ears. The conditions noted are these: mice; for decrease of the ear inflammation: topical, each day for 3 days, score over 96 h. As for the experimental part: This model is based on the capacity of mouse ears to react while P. acnes is intradermally injected. The inflammatory reaction is evaluated each day over a period of 4 days after P. acnes injection by measuring the thickness of the ears, the redness as well as the presence of a desquamation and/or small pustules. At the end of the experiment, final measurement of inflammation was realized and photographic pictures of ears were taken. Then, mice were euthanized and ears were immediately fixed in a formalin-containing buffer for a future histological analysis. The experimental design consisted of 3 groups containing 10 mice each. 1) PBS corresponds to the non-treated group injected with PBS. 2) PA+Vehicle TOPIC corresponds to P. acnes injected in ears treated with Vaseline alone. 3) PA+diclazuril corresponds to P. acnes injected in ears treated with 1.3% diclazuril mixed with Vaseline. The preparation of the 1.3% diclazuril gel consisted of extemporaneously gently mixing 6.5 mg of diclazuril with […] for 1 min at room temperature (21° C.) and then directly applied to the mouse ears. This model is based on the capacity of mouse ears to react while P. acnes is intradermally injected. The inflammatory reaction is evaluated each day over a period of 4 days after P. acnes injection by measuring the thickness of the ears, the redness as well as the presence of a desquamation and/or small pustules. At the end of the experiment, final measurement of inflammation was realized and photographic pictures of ears were taken. Then, mice were euthanized and ears were immediately fixed in a formalin-containing buffer for a future histological analysis.

The test system of experiment [3] is Cox-2. Kind of experiment: Western blot of Cox-2 expression in P. acnes-stimulated HaCaT cells. The note with it: 25 μM, 24 h pre-treatment. It is filed as cell-based, human. As for the experimental part: (§1) Western Blot analysis. Whole cell protein extracts (25 μg) were separated by electrophoresis (LDS-PAGE) under denaturing conditions with NuPAGE Novex 4-12% Bis-Tris gel (1 mm, 12 wells, Invitrogen, UK) and proteins were transferred onto nitrocellulose membranes and saturated in 20 ml of saturation buffer consisting of TBS 1× (Tris Buffered Saline) containing 200 mM Tris, 1.4 M NaCl (pH 7.6), 5% no fat milk, 0.1% Tween 20 for 1 h. […] After washing to remove unbound antibodies, bound primary antibodies were detected by incubation for 1 h using secondary antibody against rabbit- and mouse IgG (Santa Cruz Biotechnology, SC-2357, 1:5000 and SC-2005, 1:5000, respectively). Unbound material was removed by washing and peroxidase activity was detected in a chemiluminescence assay (WesternBright ECL, Advansta, Menlo Park, USA). […]

For experiment [4], the system named is IL-1β production. Nature of the experiment: PGN- and LTA-induced IL-1β production in ThP-1 monocytes (ELISA). Format: cell-based, human. The note with it: ThP-1, 6.25 μM, 24 h pre-treatment, PGN or LTA 5-20 μg/ml. As for the experimental part: (§2) ELISA. Human IL-1β, IL-8, hBD-2 and TNF-α protein concentration were measured in the supernatants of stimulated cells using various ELISA Sets (all from Ready-Set-Go from eBioscience, except hBD-2 measurements: Human DEFB4A/BD-2 ELISA Kit from LSBio) according to the manufacturer's instructions. We used serial dilutions of recombinant human IL-1β, IL-8, hBD-2 and TNF-α for standard curve. The optical density was determined at 450 nm at a wavelength correction of 540 nm.

Experiment [5] deals with Akt. Kind of experiment: Western blot of p-Akt/Akt in P. acnes-stimulated HaCaT cells. Format: cell-based, human. The note with it: 25 μM, 24 h pre-treatment. As to the method:
as §1
(Immunoblotting shows a protein as a band on a membrane.)

In experiment [6] the test system is ERK. Nature of the experiment: Western blot of p-ERK/ERK in P. acnes-stimulated HaCaT cells. Format: cell-based, human. The conditions noted are these: 24 h pre-treatment; for phosphorylation of ERKs induced by P. acnes: 10 μM; for phosphorylation of ERK induced by P. acnes: 25 μM. As to the method: Western Blot analysis. Whole cell protein extracts (25 μg) were separated by electrophoresis (LDS-PAGE) under denaturing conditions with NuPAGE Novex 4-12% Bis-Tris gel (1 mm, 12 wells, Invitrogen, UK) and proteins were transferred onto nitrocellulose membranes and saturated in 20 ml of saturation buffer consisting of TBS 1× (Tris Buffered Saline) containing 200 mM Tris, 1.4 M NaCl (pH 7.6), 5% no fat milk, 0.1% Tween 20 for 1 h. After washing three times for 15 min with 15 ml of TBS/T buffer [1×TBS, 0.1% Tween-20], membranes were incubated overnight with gentle mixing at 4° C. with 10 ml of rabbit polyclonal primary antibodies against human ICAM-1 (SC-7891, 1:500), PPARα (SC-398394, 1:250), PPARβ (SC-74517, 1:200), PPARγ (SC-7196, 1:500), IκB (SC-371, 1:500), p-IκB (SC-7977, 1:500), Cox-2 (SC-7951, 1:250), p-mTOR (CS, Ref 2974, 1:1000), mTOR (CS, Ref 2972, 1:1000), p-p38 (SC-17852, 1:500), p38 (SC-535, 1:250), ERK (SC-94, 1:500), JNK (SC-571, 1:500), and mouse monoclonal primary antibodies against human p-PI3 kinase (CS, Ref 4228, 1:250), PI3 kinase (CS, Ref 4257, 1:250), p-Akt1/2/3 (SC-81433, 1:500), p-ERK (SC-7383, 1:500), p-JNK (SC-6254, 1:500), -actin used to control loading, (SC-47778, 1:1000) diluted in TBS/T supplemented with 5% BSA (antibodies were purchased from Santa Cruz Biotechnology, Inc., Santa Cruz, Calif., USA abbreviated SC; and from Cell Signaling Technology, Inc. Leiden, The Netherlands abbreviated CS above). After washing to remove unbound antibodies, bound primary antibodies were detected by incubation for 1 h using secondary antibody against rabbit- and mouse IgG (Santa Cruz Biotechnology, SC-2357, 1:5000 and SC-2005, 1:5000, respectively). Unbound material was removed by washing and peroxidase activity was detected in a chemiluminescence assay (WesternBright ECL, Advansta, Menlo Park, USA).
The molecular basis for the inhibition of IL-8 production by diclazuril and meclozine has been investigated, in particular it has been evaluated if they interfered with signaling pathways known to be activated when keratinocytes are stimulated with P. acnes. It has first been confirmed the activation of IL-8 production when cells were stimulated by P. acnes while pre-treatment with both, diclazuril and meclozine, inhibit such production (FIG. 4A).
We also shown that the activation of HaCaT keratinocytes by P. acnes led to the activation of p-ERK, p-p38, p-JNK, p-PKC, p-Akt, p-mTOR (FIG. 15, panel P. acnes alone) and p-PI3K (FIG. 16, panel P. acnes alone).

In experiment [7] the test system is PPARα. Nature of the experiment: Western blot of PPARα expression in P. acnes-stimulated HaCaT cells. Format: cell-based, human. The note with it: 25 μM, 24 h pre-treatment. As for the experimental part:
as §1

Experiment [8] relates to TNF-α production. Kind of experiment: TNF-α production by the monocytic cell line. It is filed as cell-based, human. The note with it: data not shown. As to the method:
as §2
Both molecules, were tested to inhibit the production of IL-1β by the monocytic cell line. ThP-1 cells were pretreated with diclazuril and meclozine, at the concentrations ranging from 0.39 to 50 μM, for 24 h and then stimulated with P. acnes suspension as described in Materials and Methods. The production of IL-1β was measured on culture supernatant by ELISA and the viability of cells was estimated by MTT assay (FIG. 2).

Where [9] appears, read: 1% meclozine gel topical, vs PA+Vehicle.

For the compound `N#CC(c1ccc(Cl)cc1)c1c(Cl)cc(-n2ncc(=O)[nH]c2=O)cc1Cl` (centres unmarked) [diclazuril, Diclazuril], in experiment [1], the “IL-8 production in pretreated cells without being stimulated” value is reported as “no change”. For the same compound, the “decrease of the ear inflammation” value in experiment [2] (1.3% diclazuril in Vaseline) is listed as 37%. Also, the “expression of Cox-2” value in experiment [3] is reported as “decrease”. The “decrease of IL-1β production (average)” value in experiment [4] is recorded as 64%. Moreover, the “phosphorylation of Akt induced by P. acnes” value in experiment [5] is on record as “prevented the phosphorylation”. Further, in experiment [6], the “phosphorylation of ERKs induced by P. acnes” value was “prevented the phosphorylation of ERKs” and the “phosphorylation of ERK induced by P. acnes” value is “prevented the phosphorylation”. The “expression of PPARα” value in experiment [7] is given as “no change”. The “inhibition of TNF-α production” value in experiment [8] is recorded as “no effect”.
`Cc1cccc(CN2CCN(C(c3ccccc3)c3ccc(Cl)cc3)CC2)c1` (centres unmarked) [meclozine, Meclozine]: the “IL-8 production in pretreated cells without being stimulated” value in experiment [1] is “no change”. The “decrease of the ear inflammation” value in experiment [2] (1% meclozine gel (Vaseline, DMSO, Solutol/water)) amounted to 29.5%. In experiment [2] (setting [9]), the “ear thickness (histological analysis)” value was “decrease” and the “leukocyte infiltration (histological analysis)” value was “decrease”. Moreover, the “expression of Cox-2” value in experiment [3] was “strongly decrease”. Besides, the “decrease of IL-1β production (average)” value in experiment [4] is recorded as 36%. In experiment [5], the “phosphorylation of Akt induced by P. acnes” value was “prevented the phosphorylation”. For the same compound, in experiment [6], the “phosphorylation of ERKs induced by P. acnes” value is given as “prevented the phosphorylation of ERKs” and the “phosphorylation of ERK induced by P. acnes” value is recorded as “prevented the phosphorylation”. In addition, the “expression of PPARα” value in experiment [7] is “strongly decrease”. Besides, the “inhibition of TNF-α production” value in experiment [8] was “no effect”.
